Laboratory results reported in US8202904B2, “α-cyano-4-fluoro-3-phenoxybenzyl meta-halo pyrethrate, a process for preparing the same and the uses thereof” (East China Normal University, priority 2007, dated 2012).
Values after ≈ are worked out from the molar mass of the structure shown. Where two headings read alike, the source gives them in different places.

Columns and labels:
Blattela germanica = test: Striking down effect on cockroaches, liquid film contact method; format: in vivo; design: unit not given here; conditions: Blattela germanica male adults, film at 54 mg/m^2, 22±1° C.
Method: The striking down effect on Blattela germanica was tested using Compound 2 and 3, which are representative examples of the compound of formula (I) of the present invention, Compound 9 as a control example. Blattela germanica, an in-house cultured sensitive strain, male adult insects were used. Test temperature: 22±1° C., test method: liquid film contact method. A liquor in acetone was evenly coated at the amount of 54 mg/m^2 on the inner wall of a wild mouth bottle to form a film. After the film was dry, 10 adult insects were put into each bottle, and the striking down time and striking down number were observed, and each treatment was done in triplicate.

[1] = Acute toxicity on rats by oral administration; conditions: rat, in vivo
[2] = tested on: Tetrangychus cinnabarinus; test: Killing effect on Tetrangychus cinnabarinus, immersion; format: in vivo; conditions: after 24 hours
Method: The killing effect on acarids was tested using Compound 2 and 3, which are representative examples of the compound of formula (I) of the present invention, Compound 9 as a control example. Tetrangychus cinnabarinus, test temperature: 26±1° C. humidity: 70±10%; test method: immersion; adult insects together with horsebean leaves were immersed in a liquor in dimethyl sulfoxide for 5 seconds, after which the leaves were inserted into a small bottle. Each treatment was done in triplicate. The number of the killed insects was checked after 24 hours to calculate the mortality.

Mythimna separata = test: Killing effect on Mythimna separata, dipped corn leaves fed to larvae; format: in vivo
Method: The killing effect on Mythimna separata was tested using Compounds 2 and 3, which are representative examples of the compound of formula (I) of the present invention, Compound 9, polyfluorobenzyl meta-halo pyrethrate, which has the highest insecticidal activity to Mythimna separata as a control example.
Mythimna separata: test temperature: 26±1° C., humidity: 70±10%; the corn leaves was immersed, and then were taken out after they were dipped in a liquor in dimethyl sulfoxide for 5 seconds. The liquor was dried in the shade and the corn leaves were cut away to feed larvae at the beginning of the third instar. Each treatment was done in triplicate. The number of killed insects was counted after 48 hours to calculate the mortality.

Aphis medicaginis kock = test: Killing effect on aphids, immersion; format: in vivo
Method: The killing effect on aphids was tested using Compound 2 and 3, which are representative examples of the compound of formula (I) of the present invention, Compound 9 as a control example. Aphis medicaginis kock; test temperature: 26±1° C., humidity: 70±10%; test method: immersion; adult insects together with bean sprouts were immersed in a liquor in dimethyl sulfoxide for 5 seconds, after which the bean sprouts were heeled in a solid support. Each treatment was done in triplicate. The number of the killed insects was checked after 24 hours to calculate the mortality.

Musca domestica = test: Striking down effect on Musca domestica, liquid film contact method; format: in vivo; design: unit not given here; conditions: Musca domestica adults, film from 1 ml of 0.1% liquor in acetone in 500 ml conical flask
Method: The striking down effect on Musca domestica was tested using Compounds 2 and 3, which are representative examples of the compound of formula (I) of the present invention, Compound 9 as a control example. Musca domestica, an in-house cultured sensitive strain, the adult insects in eclosion for 3-5 days were used, and the male and female insects are half and half. Test temperature: 26±1° C., humidity: 70±10%, test method: liquid film contact method. 1 ml of 0.1% liquor in acetone was evenly coated on a 500 ml conical flask to form a film. After the film was dry, 20˜25 adult insects were put into the flask, and the striking down time and striking down number were observed, and each treatment was done in triplicate.

[3] = tested on: Culex pipiens pallens fourth instar wiggler; test: Killing effect on wiggler, WHO immersing method, LC50; format: in vivo; conditions: for Relative toxicity: from wiggler LC50, Cypermethrin = 100
Method: The following pyrethrates were tested as representatives according to the method recommended by the World Health Organization (WHO) (Zongbing ZHANG, the assay of toxicity of insecticides, the Science Press, 1988), the commonly used testing breed, Culex pipiens pallens fourth instar wiggler is used as a subject for biological assay, test temperature: 26±1° C., humidity: 70±10%; immersing method: a solution of a certain amount the compound to be tested in acetone was mixed evenly with pure water in the gradually decreasing concentration of 500, 250, 100, 50, 25, 12.5, 6.25, 3.125, 1, 0.5, 0.25, 0.1, 0.05, 0.025, 0.01, 0.005, 0.0025, 0.0001 mg/L, and the mortality of wiggler after 24 hours was calculated and LC50 was calculated to preliminarily evaluate the insecticidal activity. The results were shown in Table I. Compound 1-5 are representative examples of the compound of formula (I) of the present invention: the compounds involved in preparation Example 1-5 were prepared;
At the same time, their relative toxicities were compared with those of Cypermethrin, and Deltamethrin.

[4] = Stability test, ultraviolet lamp irradiation, gas chromatography analysis; format: physicochemical; conditions: 30 min, 3 mM
Method: 0.15 mmol of the compound of Preparation Example 2 (cis-α-cyano-3-phenoxy-4-fluoro-benzyl-2,2-dimethyl-3-(2-chlorovinyl)cyclopropane carboxylate) and 0.15 mmol of the corresponding dichloride compound (cis-α-cyano-3-phenoxy-4-fluoro-benzyl-2,2-dimethyl-3-(2,2-dichlorovinyl)cyclopropane carboxylate) were added to two vessels separately, to which 50 ml of cyclohexane were added separately. They were irradiated by a 500 W ultraviolet lamp for 30 min respectively. Then to each of the vessels were added 0.15 mmol of n-hexane as an internal standard for gas chromatography analysis. […] The photodegradation rate of the former is 1.9 times of that of the latter. That is to say, if the same amounts were used, the residue of the former in the environment is lower than that of the latter.

[5] = 48 h, read-out: The average mortality
[6] = Aphis medicaginis, 24 h, read-out: The average mortality

CC1(C)[C@H](C=CCl)[C@@H]1C(=O)OC(C#N)c1ccc(F)c(Oc2ccccc2)c1 (relative stereo) [Compound 2, cis-α-cyano-3-phenoxy-4-fluoro-benzyl-2,2-dimethyl-3-(2-chlorovinyl)cyclopropane carboxylate]
KT50 (Blattela germanica): 5.12 | LD50 ([1]; female): 158 mg/kg | LD50 ([1]; male): 116 mg/kg | The average mortality ([2]; 1 mg/L): 0% | The average mortality ([2]; 5 mg/L): 11.9% | The average mortality ([2]; 50 mg/L): 91.1% | The average mortality ([2]; 500 mg/L): 100% | mortality at 0.25 ppm (Mythimna separata; [5]): 0% | mortality at 0.5 ppm (Mythimna separata; [5]): 33.3% | mortality at 1 ppm (Mythimna separata; [5]): 66.7% | mortality at 5 ppm (Mythimna separata; [5]): 100% | mortality at 50 ppm (Mythimna separata; [5]): 100% | mortality at 500 ppm (Mythimna separata; [5]): 100% | mortality at 0.25 ppm (Aphis medicaginis kock; [6]): 0% | mortality at 0.5 ppm (Aphis medicaginis kock; [6]): 28.8% | mortality at 1 ppm (Aphis medicaginis kock; [6]): 84.3% | mortality at 5 ppm (Aphis medicaginis kock; [6]): 89.5% | mortality at 50 ppm (Aphis medicaginis kock; [6]): 100% | mortality at 500 ppm (Aphis medicaginis kock; [6]): 100% | KT50 (Musca domestica): 3.49 | relative toxicity versus cypermethrin ([3]; Culex pipiens pallen larvae): 22.55 times | relative toxicity versus deltamethrin ([3]; Culex pipiens pallen larvae): 2.55 times | relative toxicity versus the compounds in comparative examples 1-6 ([3]; Culex pipiens pallen larvae): 125-1128 times | LC50 ([3]; Culex pipiens, 24 h): 0.47 ng/mL (≈ 0.00118 µM) | relative toxicity versus deltamethrin, estimated for the single chiral isomer ([3]; extrapolated 4*2.55 from the racemate of four chiral isomers): 10 times | Relative toxicity [3]: 2255 | degraded by light [4]: 30% | photodegradation rate relative to the corresponding dichloride compound [4]: 1.9 times

CC1(C)[C@@H](C=CCl)[C@@H]1C(=O)OC(C#N)c1ccc(F)c(Oc2ccccc2)c1 (relative stereo) [Compound 3, Trans-α-cyano-3-phenoxy-4-fluoro-benzyl-2,2-dimethyl-3-(2-chlorovinyl)cyclopropane carboxylate]
KT50 (Blattela germanica): 8.14 | The average mortality ([2]; 1 mg/L): 0% | The average mortality ([2]; 5 mg/L): 0% | The average mortality ([2]; 50 mg/L): 7.8% | The average mortality ([2]; 500 mg/L): 100% | mortality at 0.5 ppm (Mythimna separata; 0.5 ppm, after 48 hours, read-out: The average mortality): 0% | mortality at 1 ppm (Mythimna separata; 1 ppm, after 48 hours, read-out: The average mortality): 0% | mortality at 5 ppm (Mythimna separata; 5 ppm, after 48 hours, read-out: The average mortality): 100% | mortality at 50 ppm (Mythimna separata; 50 ppm, after 48 hours, read-out: The average mortality): 100% | mortality at 500 ppm (Mythimna separata; 500 ppm, after 48 hours, read-out: The average mortality): 100% | mortality at 0.5 ppm (Aphis medicaginis kock; Aphis medicaginis, aphids, 0.5 ppm, after 24 hours, read-out: The average mortality): 0% | mortality at 1 ppm (Aphis medicaginis kock; Aphis medicaginis, aphids, 1 ppm, after 24 hours, read-out: The average mortality): 66.3% | mortality at 5 ppm (Aphis medicaginis kock; Aphis medicaginis, aphids, 5 ppm, after 24 hours, read-out: The average mortality): 83.7% | mortality at 50 ppm (Aphis medicaginis kock; Aphis medicaginis, aphids, 50 ppm, after 24 hours, read-out: The average mortality): 100% | mortality at 500 ppm (Aphis medicaginis kock; Aphis medicaginis, aphids, 500 ppm, after 24 hours, read-out: The average mortality): 100% | KT50 (Musca domestica): 5.80 | LC50 ([3]; Culex pipiens pallens fourth instar wiggler, immersing method, mortality after 24 hours, 26±1° C., read-out: LC50): 5.5 ng/mL (≈ 0.0138 µM) | Relative toxicity [3]: 193

CC1(C)[C@@H](C=CCl)[C@@H]1C(=O)OCc1c(F)c(F)cc(F)c1F (relative stereo) [Compound 9, trans-2,3,5,6-tetrafluoro-4-benzyl-3-(2-chlorovinyl)-2,2-dimethylcyclopropane carboxylat, reference compound]
KT50 (Blattela germanica): 12.0 | The average mortality ([2]; 1 mg/L): 0% | The average mortality ([2]; 5 mg/L): 0% | The average mortality ([2]; 50 mg/L): 0% | The average mortality ([2]; 500 mg/L): 0% | The average mortality (Mythimna separata; 0.5 ppm, after 48 hours): 0% | The average mortality (Mythimna separata; 1 ppm, after 48 hours): 0% | The average mortality (Mythimna separata; 5 ppm, after 48 hours): 0% | The average mortality (Mythimna separata; 50 ppm, after 48 hours): 100% | The average mortality (Mythimna separata; 500 ppm, after 48 hours): 100% | The average mortality (Aphis medicaginis kock; aphids, 0.5 ppm, after 24 hours): 0% | The average mortality (Aphis medicaginis kock; aphids, 1 ppm, after 24 hours): 0% | The average mortality (Aphis medicaginis kock; aphids, 5 ppm, after 24 hours): 0% | The average mortality (Aphis medicaginis kock; aphids, 50 ppm, after 24 hours): 18.8% | The average mortality (Aphis medicaginis kock; aphids, 500 ppm, after 24 hours): 100% | KT50 (Musca domestica): 9.51 | LC50 ([3]; Culex pipiens pallens fourth instar wiggler, immersing method, mortality after 24 hours, 26±1° C.): 249.2 ng/mL (≈ 0.74 µM) | Relative toxicity [3]: 4
